Test results reported in ChEMBL document CHEMBL1201862, “PubChem BioAssay data set” (2004).
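Exposure lasted 48 hours, with cells grown in 96-well plates and compounds tested at five concentrations. The concentration for 50% growth inhibition is given as GI50.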 Calls of active or inactive are those of the source. Cut-off read from the data, not from the text of the source: active = GI50 up to about 1.1 µM and inactive = higher.

Experiments:
Assay in all cases: NCI anticancer screen, dose series, 48 h
[1] = test system: HCT-116
[2] = test system: LOX IMVI
[3] = test system: A549
[4] = test system: MCF7
[5] = test system: COLO 205
[6] = test system: EKVX
[7] = test system: OVCAR-5
[8] = test system: OVCAR-3
[9] = test system: SNB-75
[10] = test system: HOP-92
[11] = test system: CAKI-1
[12] = test system: SNB-19
[13] = test system: Hs-578T
[14] = test system: M14
[15] = test system: SF-268
[16] = test system: SF-295
[17] = test system: MOLT-4
[18] = test system: HL-60
[19] = test system: PC-3
[20] = test system: K562

Row | SMILES | GI50 [1] | GI50 [2] | GI50 [3] | GI50 [4] | GI50 [5] | GI50 [6] | GI50 [7] | GI50 [8] | GI50 [9] | GI50 [10] | GI50 [11] | GI50 [12] | GI50 [13] | GI50 [14] | GI50 [15] | GI50 [16] | GI50 [17] | GI50 [18] | GI50 [19] | GI50 [20]
1 | CCOC(=O)/C=C\c1c(Cl)n(-c2ccccc2)c(=O)n(-c2ccccc2)c1=O | 23.8 µM (inactive) | 22.6 µM (inactive) | 25.1 µM (inactive) | 22.6 µM (inactive) | 18.5 µM (inactive) | 21 µM (inactive) | 20.6 µM (inactive) | 19.3 µM (inactive) | 14.9 µM (inactive) | 15.8 µM (inactive) | 19.5 µM (inactive) | 16 µM (inactive) | 27.3 µM (inactive) | 18.7 µM (inactive) | 20.7 µM (inactive) | 21.9 µM (inactive) | 38.5 µM (inactive) | 4.63 µM (inactive) | 18.7 µM (inactive) | 
2 | O=C1CC=C2C3CC4N(CCC45c4ccccc4N1C25)C/C3=C\CO (stereo not drawn) | > 100 µM (inactive) | > 100 µM (inactive) | > 100 µM (inactive) | > 100 µM (inactive) | > 100 µM (inactive) | > 100 µM (inactive) | > 100 µM (inactive) | > 100 µM (inactive) | > 100 µM (inactive) | > 100 µM (inactive) | > 100 µM (inactive) | > 100 µM (inactive) | > 100 µM (inactive) |  | > 100 µM (inactive) | > 100 µM (inactive) | > 100 µM (inactive) | > 100 µM (inactive) | > 100 µM (inactive) | > 100 µM (inactive)
3 | Oc1ccc(Cl)cc1Sc1cc(Cl)ccc1O [FENTICLOR] | 7.11 µM (inactive) | 8.55 µM (inactive) | 26.8 µM (inactive) | 17.3 µM (inactive) | 20.7 µM (inactive) | 15.5 µM (inactive) | 13.4 µM (inactive) | 3.75 µM (inactive) | 16.2 µM (inactive) | 3.15 µM (inactive) | 17.9 µM (inactive) | 12.9 µM (inactive) | 4.98 µM (inactive) | 12.9 µM (inactive) | 10.3 µM (inactive) | 13.5 µM (inactive) | 7.53 µM (inactive) | 7.87 µM (inactive) | 15.3 µM (inactive) | 8.34 µM (inactive)
4 | CN(C)CCCNc1c2c(=O)n(C)c(=O)nc-2n(C)c2ccccc12 | 3.69 µM (inactive) | 3.87 µM (inactive) | 4.74 µM (inactive) | 3.82 µM (inactive) | 3.21 µM (inactive) | 6.43 µM (inactive) | 6.1 µM (inactive) | 1.25 µM (inactive) | 5.15 µM (inactive) | 17 µM (inactive) | 7.13 µM (inactive) | 6.56 µM (inactive) | 10.1 µM (inactive) | 5.02 µM (inactive) | 5.38 µM (inactive) | 6.43 µM (inactive) | 3.01 µM (inactive) | 0.966 µM (active) | 4.08 µM (inactive) | 4.8 µM (inactive)
5 | Cc1nc2[nH]ccn2c(=O)c1CCCl | 17 µM (inactive) | 16.6 µM (inactive) | 45.5 µM (inactive) | 68.1 µM (inactive) | 38.7 µM (inactive) | > 100 µM (inactive) | > 100 µM (inactive) | 25.2 µM (inactive) | 39.3 µM (inactive) | 21.4 µM (inactive) | > 10 µM (inactive) | 57.1 µM (inactive) | 37.6 µM (inactive) | 31.8 µM (inactive) | 36.4 µM (inactive) | 31.6 µM (inactive) | 14.8 µM (inactive) | 25.4 µM (inactive) | 49.7 µM (inactive) | 22.9 µM (inactive)
6 | COc1cccc(CCNc2c(C#N)c3n(c4ccccc4[n+]3C)c3ncccc23)c1 | 1.77 µM (inactive) | 1.74 µM (inactive) | 1.82 µM (inactive) | 1.52 µM (inactive) | 4.93 µM (inactive) | 17.3 µM (inactive) | 15.3 µM (inactive) | 19.6 µM (inactive) | 5.96 µM (inactive) | 27.7 µM (inactive) | 6.52 µM (inactive) | 5.9 µM (inactive) | 7.31 µM (inactive) | 1.76 µM (inactive) | 16.4 µM (inactive) | 1.69 µM (inactive) | 2.55 µM (inactive) | 1.79 µM (inactive) | 14.4 µM (inactive) | 2.39 µM (inactive)
7 | C=C(C)[C@H]1C=C[C@@H](OC(C)=O)[C@@]2(COC(C)=O)[C@H](OC(=O)CCC)[C@H]3[C@@H](OC(C)=O)[C@@H](C)C[C@]3(O)C(=O)[C@@](C)(OC(C)=O)[C@H]12 | 37.6 µM (inactive) | 29.5 µM (inactive) | 32.7 µM (inactive) | 42.3 µM (inactive) | 22 µM (inactive) | 38.2 µM (inactive) | 60.4 µM (inactive) |  | 46 µM (inactive) | 3.53 µM (inactive) | > 100 µM (inactive) | 66.2 µM (inactive) | 43.1 µM (inactive) | 31.8 µM (inactive) | 67 µM (inactive) |  | 33.6 µM (inactive) | 33.5 µM (inactive) | 31.6 µM (inactive) | 31.6 µM (inactive)
8 | CCCCCCCCCCCCCCCC(=O)Nc1ccn(C2OC(CO)C(O)C2O)c(=O)n1 (stereo not drawn) | 1.21 µM (inactive) | 5.25 µM (inactive) | 2.62 µM (inactive) | 0.94 µM (active) | 37.9 µM (inactive) | > 100 µM (inactive) | 45.4 µM (inactive) | 34.2 µM (inactive) | 30.5 µM (inactive) | 16.6 µM (inactive) | 28.7 µM (inactive) | 15.2 µM (inactive) | > 45.2 µM (inactive) | 3.21 µM (inactive) | 15.2 µM (inactive) | 51.1 µM (inactive) | 0.131 µM (active) | 2.77 µM (inactive) | 3.78 µM (inactive) | 9.75 µM (inactive)
9 | CC1=N[C@](C)(C2CC3C=CC2C3=O)COC1=O (stereo partly drawn) | > 100 µM (inactive) |  | > 100 µM (inactive) | > 100 µM (inactive) | > 100 µM (inactive) | > 100 µM (inactive) | > 100 µM (inactive) | > 100 µM (inactive) | > 100 µM (inactive) | > 100 µM (inactive) | > 100 µM (inactive) | > 100 µM (inactive) | > 100 µM (inactive) | > 100 µM (inactive) | > 100 µM (inactive) | > 100 µM (inactive) | > 100 µM (inactive) | > 100 µM (inactive) | > 100 µM (inactive) | > 100 µM (inactive)
10 | COc1ccc(COCC[C@H](C)OC2OC(CO[Si](C)(C)C(C)(C)C)C(OC(=O)CCCN=[N+]=[N-])C(OC(=O)CCCN=[N+]=[N-])C2OC(=O)CCCN=[N+]=[N-])cc1 (stereo partly drawn) | 19.5 µM (inactive) | 25.2 µM (inactive) | > 100 µM (inactive) | 25.9 µM (inactive) | 25.6 µM (inactive) | 33.2 µM (inactive) | 89.1 µM (inactive) | 61.8 µM (inactive) | 14.2 µM (inactive) | > 100 µM (inactive) | 36.9 µM (inactive) |  | > 100 µM (inactive) | 68.5 µM (inactive) | 35.3 µM (inactive) | 89.3 µM (inactive) |  | 10.6 µM (inactive) | 28.6 µM (inactive) | 
11 | Fc1cc2nc3n(c2cc1F)C(c1c(Cl)cccc1Cl)SC3 (stereo not drawn) | 12.6 µM (inactive) | 16.3 µM (inactive) | 14.9 µM (inactive) | 16.5 µM (inactive) | 18.7 µM (inactive) | 18.4 µM (inactive) | 14.3 µM (inactive) | 13 µM (inactive) | 13.7 µM (inactive) | 13.6 µM (inactive) | 14.1 µM (inactive) | 14 µM (inactive) | 18.4 µM (inactive) | 15.7 µM (inactive) | 16.5 µM (inactive) | 13.4 µM (inactive) | 24.4 µM (inactive) | 15.5 µM (inactive) | 16.3 µM (inactive) | 
12 | CCOC(=O)Nc1cc2ccccc2c(/N=N/c2ccccc2)c1O | > 100 µM (inactive) |  | > 100 µM (inactive) | 56.4 µM (inactive) | > 100 µM (inactive) | > 100 µM (inactive) | > 100 µM (inactive) | > 100 µM (inactive) | 31 µM (inactive) | 88.7 µM (inactive) | 75.3 µM (inactive) | 84.1 µM (inactive) | 25.2 µM (inactive) | > 100 µM (inactive) | 58.2 µM (inactive) | 31.7 µM (inactive) | > 100 µM (inactive) | > 100 µM (inactive) | > 100 µM (inactive) | > 100 µM (inactive)
13 | COc1cc2c(cc1O)C1Cc3ccc(OC)c(O)c3C[N+]1(C)CC2 (stereo not drawn) | > 100 µM (inactive) | > 100 µM (inactive) | > 100 µM (inactive) | > 100 µM (inactive) | > 100 µM (inactive) | > 100 µM (inactive) | > 100 µM (inactive) |  | > 100 µM (inactive) | > 100 µM (inactive) | > 100 µM (inactive) | > 100 µM (inactive) | > 100 µM (inactive) | > 100 µM (inactive) | > 100 µM (inactive) | > 100 µM (inactive) | > 100 µM (inactive) | > 100 µM (inactive) | > 100 µM (inactive) | 58.3 µM (inactive)
14 | C[C@@H]1CC[C@@]2(C)C(C(=O)O)=CCCC2[C@@]1(C)CC(=O)c1ccoc1 (stereo partly drawn) | > 25 µM (inactive) | > 25 µM (inactive) | > 25 µM (inactive) | > 25 µM (inactive) | > 25 µM (inactive) | > 25 µM (inactive) | > 25 µM (inactive) | > 25 µM (inactive) | > 25 µM (inactive) | > 25 µM (inactive) | > 25 µM (inactive) | > 25 µM (inactive) | > 25 µM (inactive) | > 25 µM (inactive) | > 25 µM (inactive) | > 25 µM (inactive) | > 25 µM (inactive) | > 25 µM (inactive) | > 25 µM (inactive) | 
